# Results: patent US20250197394A1, “ANTIBACTERIALS BASED ON MONOCYCLIC FRAGMENTS COUPLED TO AMINOPIPERIDINE NAPHTHYRIDINE SCAFFOLD” (UNIVERZA V LJUBLJANI, priority 2019, published 2025)
# Columns and labels:
# [1] = target: T1, Escherichia coli DNA gyrase (Escherichia coli, UniProt P0AES4+P0AES6); experiment: Gyrase Supercoiling High Throughput Plate assay (E. coli); type: biochemical; details: mean of two to four independent measurements
# T1 construct: purchased Inspiralis (Norwich, UK)
# [2] = tested on: methicillin-resistant Staphylococcus schleiferi subspecies coagulans; experiment: MIC broth microdilution, MRSS; type: cell-based; details: 20 hours of incubation
# Protocol: (§1) Minimal inhibitory concentrations were determined by the broth microdilution method in 96-wells plate format following the Clinical and Laboratory Standards Institute (CLSI) guidelines given in “Methods for Dilution Antimicrobial Susceptibility Tests for Bacteria That Grow Aerobically, Approved Standard, 10th Edition, CLSI document M07-A10, Wayne, PA: Clinical and Laboratory Standards Institute, USA, 2015” and European Committee on Antimicrobial Susceptibility Testing (EUCAST) recommendations given in “The European Committee on Antimicrobial Susceptibility Testing, Breakpoint tables for interpretation of MICs and zone diameters, Version 5.0, 2015”. All exemplified compounds were tested on several Gram-positive (S. aureus, methicillin-resistant Staphylococcus aureus (MRSA), methicillin-resistant
# (§2) Staphylococcus schleiferi subspecies coagulans, methicillin-resistant Staphylococcus pseudintermedius
# (§3) (S-48, S-84, S-35, S-52, S-40 and S-51), Streptococcus agalactiae and Enterococcus faecalis) and Gram-negative bacteria (E. coli, Salmonella Alachua and Pseudomonas aeruginosa).
# (§4) The MICs were visually determined as the lowest compound concentration inhibiting bacterial growth after 20 hours of incubation time. […] MIC values are represented in Table 2.
# [3] = tested on: methicillin-resistant Staphylococcus pseudintermedius S-84; experiment: MIC broth microdilution, MRSP S-84; type: cell-based; details: 20 hours of incubation
# Protocol: as §1, §2, §3, §4
# [4] = tested on: methicillin-resistant Staphylococcus pseudintermedius S-48; experiment: MIC broth microdilution, MRSP S-48; type: cell-based; details: 20 hours of incubation
# Protocol: as §1, §2, §3, §4
# [5] = tested on: methicillin-resistant Staphylococcus pseudintermedius S-35; experiment: MIC broth microdilution, MRSP S-35; type: cell-based; details: 20 hours of incubation
# Protocol: as §1, §2, §3, §4
# [6] = tested on: methicillin-resistant Staphylococcus pseudintermedius S-52; experiment: MIC broth microdilution, MRSP S-52; type: cell-based; details: 20 hours of incubation
# Protocol: as §1, §2, §3, §4
# [7] = tested on: methicillin-resistant Staphylococcus pseudintermedius S-40; experiment: MIC broth microdilution, MRSP S-40; type: cell-based; details: 20 hours of incubation
# Protocol: as §1, §2, §3, §4
# [8] = tested on: methicillin-resistant Staphylococcus pseudintermedius S-51; experiment: MIC broth microdilution, MRSP S-51; type: cell-based; details: 20 hours of incubation
# Protocol: as §1, §2, §3, §4
# E. faecalis DRK 057 = experiment: MIC broth microdilution, E. faecalis; type: cell-based; details: Enterococcus faecalis, DRK057, 20 hours of incubation
# Protocol: as §1, §2, §3, §4
# P. aeruginosa RDK 184 = experiment: MIC broth microdilution, P. aeruginosa; type: cell-based; details: Pseudomonas aeruginosa, RDK184, 20 hours of incubation
# Protocol: as §1, §2, §3, §4
# C. jejuni RDK-135 = experiment: MIC broth microdilution, C. jejuni; type: cell-based; details: Campylobacter jejuni, RDK135, 20 hours of incubation
# Protocol: as §1, §4
# HUVEC (ATCC) cell line = experiment: Cytotoxicity, metabolic cell activity (CellTiter 96 AQueous One), HUVEC; type: cell-based; details: two independent experiments; for mean percentage of metabolic activity of treated cells, HUVEC 1 μM: compound 1 μM; for mean percentage of metabolic activity of treated cells, HUVEC 50 μM: compound 50 μM
# Protocol: (§5) Cytotoxicity was assessed in assay measuring metabolic cell activity performed on HepG2 (ATCC) and HUVEC (ATCC) cell lines according to the protocol of CellTiter 96® AQueous One Solution Cell Proliferation Assay 2018, Promega, USA, 2001. The method involved absorbance measurements after the treatment of cells with compounds at concentrations 1 μM and 50 μM.
# (§6) The results are given as the mean percentage of metabolic activity of treated cells from two independent experiments and are represented in Table 3.
# HepG2 (ATCC) cell line = experiment: Cytotoxicity, metabolic cell activity (CellTiter 96 AQueous One), HepG2; type: cell-based; details: two independent experiments; for mean percentage of metabolic activity of treated cells, HepG2 1 μM: HepG2, compound 1 μM; for mean percentage of metabolic activity of treated cells, HepG2 50 μM: HepG2, compound 50 μM
# Protocol: as §5, §6
# [9] = target: Staphylococcus aureus DNA gyrase (Staphylococcus aureus, UniProt P0A0K8+P20831); experiment: biochemical
# Staphylococcus aureus DNA gyrase, sequence (P20831 whole entry): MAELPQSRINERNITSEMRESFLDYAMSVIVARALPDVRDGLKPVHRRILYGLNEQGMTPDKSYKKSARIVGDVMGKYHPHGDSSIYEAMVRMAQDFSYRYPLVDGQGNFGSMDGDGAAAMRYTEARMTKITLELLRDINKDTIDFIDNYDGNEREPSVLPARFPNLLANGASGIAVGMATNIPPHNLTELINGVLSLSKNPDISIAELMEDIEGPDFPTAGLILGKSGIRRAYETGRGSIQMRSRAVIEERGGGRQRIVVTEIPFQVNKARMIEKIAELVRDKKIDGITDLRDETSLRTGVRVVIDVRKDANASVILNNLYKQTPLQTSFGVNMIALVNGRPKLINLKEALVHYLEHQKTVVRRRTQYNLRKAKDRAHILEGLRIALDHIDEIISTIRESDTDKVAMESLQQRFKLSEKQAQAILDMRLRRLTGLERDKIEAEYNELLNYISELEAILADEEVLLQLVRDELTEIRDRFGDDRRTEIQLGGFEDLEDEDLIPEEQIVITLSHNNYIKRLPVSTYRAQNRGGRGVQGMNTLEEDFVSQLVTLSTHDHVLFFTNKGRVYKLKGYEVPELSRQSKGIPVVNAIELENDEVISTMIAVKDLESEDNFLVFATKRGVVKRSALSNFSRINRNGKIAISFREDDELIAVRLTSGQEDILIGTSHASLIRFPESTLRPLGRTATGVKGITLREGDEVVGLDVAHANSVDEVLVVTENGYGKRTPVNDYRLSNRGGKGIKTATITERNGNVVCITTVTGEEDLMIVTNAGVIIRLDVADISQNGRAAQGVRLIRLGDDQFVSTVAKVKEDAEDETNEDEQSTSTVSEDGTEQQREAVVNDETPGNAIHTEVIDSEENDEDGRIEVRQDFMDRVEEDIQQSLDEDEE
# Staphylococcus aureus DNA gyrase, sequence (P0A0K8 whole entry): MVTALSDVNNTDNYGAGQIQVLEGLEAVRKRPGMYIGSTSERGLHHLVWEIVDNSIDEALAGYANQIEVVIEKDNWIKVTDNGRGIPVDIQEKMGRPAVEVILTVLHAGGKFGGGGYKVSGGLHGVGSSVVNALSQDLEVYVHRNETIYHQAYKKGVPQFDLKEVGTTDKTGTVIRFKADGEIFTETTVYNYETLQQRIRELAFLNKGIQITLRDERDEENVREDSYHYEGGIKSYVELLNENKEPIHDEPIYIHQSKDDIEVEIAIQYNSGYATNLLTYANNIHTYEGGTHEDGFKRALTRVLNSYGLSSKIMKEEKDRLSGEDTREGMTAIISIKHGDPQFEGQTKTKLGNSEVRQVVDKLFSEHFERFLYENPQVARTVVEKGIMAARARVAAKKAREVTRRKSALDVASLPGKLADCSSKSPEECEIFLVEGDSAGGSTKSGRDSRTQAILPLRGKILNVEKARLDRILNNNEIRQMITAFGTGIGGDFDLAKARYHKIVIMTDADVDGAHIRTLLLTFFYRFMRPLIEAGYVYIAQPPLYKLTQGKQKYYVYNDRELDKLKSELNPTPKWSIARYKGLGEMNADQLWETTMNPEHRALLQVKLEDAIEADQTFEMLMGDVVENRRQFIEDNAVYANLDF
# T1 sequence (P0AES4 whole entry, one chain of several): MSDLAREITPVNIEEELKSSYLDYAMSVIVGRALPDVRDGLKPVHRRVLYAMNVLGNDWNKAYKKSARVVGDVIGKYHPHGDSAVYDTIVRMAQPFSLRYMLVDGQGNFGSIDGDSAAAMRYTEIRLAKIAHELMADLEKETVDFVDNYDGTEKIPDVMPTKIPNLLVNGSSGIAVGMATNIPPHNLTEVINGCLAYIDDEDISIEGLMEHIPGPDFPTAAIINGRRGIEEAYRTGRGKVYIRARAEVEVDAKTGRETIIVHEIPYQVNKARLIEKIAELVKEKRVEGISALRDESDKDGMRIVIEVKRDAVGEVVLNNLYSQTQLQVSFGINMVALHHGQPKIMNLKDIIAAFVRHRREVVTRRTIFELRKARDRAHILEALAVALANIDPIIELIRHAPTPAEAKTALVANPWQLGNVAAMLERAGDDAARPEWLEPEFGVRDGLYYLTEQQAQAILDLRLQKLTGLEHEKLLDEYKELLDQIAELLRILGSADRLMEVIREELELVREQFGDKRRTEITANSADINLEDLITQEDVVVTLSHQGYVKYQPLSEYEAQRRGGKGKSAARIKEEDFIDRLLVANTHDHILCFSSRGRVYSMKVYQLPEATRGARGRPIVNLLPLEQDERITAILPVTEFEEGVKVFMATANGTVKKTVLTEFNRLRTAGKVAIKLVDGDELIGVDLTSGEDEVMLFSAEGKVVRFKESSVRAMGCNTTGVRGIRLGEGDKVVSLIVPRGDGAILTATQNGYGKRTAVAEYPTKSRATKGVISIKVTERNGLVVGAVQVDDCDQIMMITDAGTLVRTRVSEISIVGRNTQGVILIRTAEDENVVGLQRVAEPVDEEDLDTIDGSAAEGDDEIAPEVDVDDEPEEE
SMILES,IC50 [1] [µM],MIC [2] [µg/mL],MIC [3] [µg/mL],MIC [4] [µg/mL],MIC [5] [µg/mL],MIC [6] [µg/mL],MIC [7] [µg/mL],MIC [8] [µg/mL],MIC (E. faecalis DRK 057) [µg/mL],MIC (P. aeruginosa RDK 184) [µg/mL],MIC (C. jejuni RDK-135) [µg/mL],"mean percentage of metabolic activity of treated cells, HUVEC 1 μM (HUVEC (ATCC) cell line) [%]","mean percentage of metabolic activity of treated cells, HUVEC 50 μM (HUVEC (ATCC) cell line) [%]","mean percentage of metabolic activity of treated cells, HepG2 1 μM (HepG2 (ATCC) cell line) [%]","mean percentage of metabolic activity of treated cells, HepG2 50 μM (HepG2 (ATCC) cell line) [%]",IC50 [9] [µM]
"COc1ccc2nccc(CCN3CCC(NCc4ccccc4)CC3)c2n1 [Compound C1, N-benzyl-1-(2-(6-methoxy-1,5-naphthyridin-4-yl)ethyl)piperidin-4-amine]",40.6,0.25,4,4,4,16,4,4,16,> 128,32,92.9 ± 16.6,63.4 ± 11.3,107.1 ± 7.2,1.4 ± 0.3,1.02
"COc1ccc2nccc(CCN3CCC(NCc4ccc(CO)cc4)CC3)c2n1 [Compound C2, (4-((1-(2-(6-methoxy-1,5-naphthyridin-4-yl)ethyl)piperidin-4-ylamino)methyl)phenyl)methanol]",56.6,0.25,4,4,4,8,4,4,8,> 128,32,97.7 ± 9.4,63.1 ± 2.1,100.2 ± 1.5,24.1 ± 0.9,4.39
"COc1ccc2nccc(CCN3CCC(NCc4ccc(C(N)=O)cc4)CC3)c2n1 [Compound C3, 4-((1-(2-(6-methoxy-1,5-naphthyridin-4-yl)ethyl)piperidin-4-ylamino)methyl) benzamide]",> 100,0.25,4,4,4,8,4,4,128,> 128,128,105.8 ± 3.5,66.1 ± 3.5,94.0 ± 0.8,48.3 ± 1.0,1.82
"COc1ccc2nccc(CCN3CCC(NCc4ccc(F)cc4)CC3)c2n1 [Compound C5, N-(4-fluorobenzyl)-1-(2-(6-methoxy-1,5-naphthyridin-4-yl)ethyl)piperidin-4-amine]",17,0.125,2,2,2,8,2,2,8,> 128,1,105.2 ± 15.1,75.6 ± 12.0,98.0 ± 3.9,−1.3 ± 2.2,0.55
"COc1ccc2nccc(CCN3CCC(NCc4ccc(Br)cc4)CC3)c2n1 [Compound C7, N-(4-bromobenzyl)-1-(2-(6-methoxy-1,5-naphthyridin-4-yl)ethyl)piperidin-4-amine]",–,≤ 0.0078,0.062,0.062,0.062,0.125,0.031,0.062,1,128,0.5,92.0 ± 4.5,−0.5 ± 0.2,84.3 ± 8.9,−0.1 ± 0.3,0.007
"COc1ccc2nccc(CCN3CCC(NCc4ccc(OC(F)F)c(OC)c4)CC3)c2n1 [Compound C9, N-(4-(difluoromethoxy)-3-methoxybenzyl)-1-(2-(6-methoxy-1,5-naphthyridin-4-yl)ethyl)piperidin-4-amine]",3.9,0.125,2,2,2,4,2,2,16,> 128,2,89.6 ± 3.8,0.2 ± 1.0,89.7 ± 3.8,−0.3 ± 2.1,0.35
"COc1ccc2nccc(CCN3CCC(NCc4ccc(OC(F)F)c(O)c4)CC3)c2n1 [Compound C10, 2-(difluoromethoxy)-5-((1-(2-(6-methoxy-1,5-naphthyridin-4-yl)ethyl)piperidin-4-ylamino)methyl)phenol]",4.41,0.25,0.25,0.25,0.5,2,0.25,0.25,4,> 128,0.016,96.4 ± 9.1,2.5 ± 0.3,100.5 ± 4.8,−0.4 ± 1.6,0.33
